The source of these data is patent publication US20120321584A1, “PROCESSES FOR PREPARING AMINE SALTS OF KMUP-3 AND USE THEREOF” (KAOHSIUNG MEDICAL UNIVERSITY, priority 2011, published 2012).

The subject of experiment [1] is isolated spontaneously beating right atrium. Put plainly: Spontaneously beating right atrium, organ bath. The format is cell-based, guinea-pig. Conditions: 0.1-30 μM. The protocol: Organ bath experiments and tissue procurement. Guinea-pigs were killed by a blow on the head. Their hearts were quickly excised and trimmed of excess tissues. The atrium was carefully removed and placed at room temperature (20˜25° C.) in a Krebs solution of the following composition (mM): NaCl 113, KCl 4.8, CaCl2 2.2, KH2PO4 1.2, MgCl2 1.2, NaHCO3 25, dextrose 11.0; bubbled with a 95% O2+5% CO2 mixture, followed by separation of right and left atrium for subsequent experiments.
Spontaneously beating right atrium was dissected from the heart and mounted in a 10 ml organ bath with one end fixed and the other end connected to a force displacement transducer (Grass, Model FT03). The frequency of contraction was measured on a separate channel by a tachometer (Coulbourn, Model S77-26) connected to a high-speed videograph (Coulbourn, AT L19-69). These experiments were carried out at 32.5° C. in Krebs solution. The atria strip was pre-stretched to a baseline tension of 0.5 g and equilibrated for 90 min in aerated (95% O2+5% CO2) Krebs solution before the experimental protocols were initiated. The atria were then allowed a 30-60 min washout period to re-stabilize. KMUP-3 or KMUP-3 amine salt (0.1, 1.0, 10, 100 μM) were then cumulatively added to the organ bath. […]

Experiment [2] concerns RhoA. Put plainly: RhoA expression in electrically-stimulated left atria, Western blotting. The format is cell-based, guinea-pig. The conditions noted are these: KMUP-3 0.1-10 μM. As for the experimental part: (§1) Protein extraction and Western blotting analysis. Briefly, after incubation with test agents in an organ bath, isolated beating atrium was frozen and pulverized to a fine powder at the temperature of liquid nitrogen. Atrium powders were then homogenized in protein extraction reagent (Pierce Biotechnology, Inc., Rockford, Ill.) by sonication. The samples were sonicated 10 sec three times and centrifuged at 13,000 rpm at 4° C. for 30 min. The protein concentrations of supernatants were determined by using bovine serum albumin as the standard. The cell extracts were then boiled in a ratio of 4:1 with sample buffer (Tris 100 mM, pH 6.8; glycerol 20%, Sodium dodecyl sulfate (SDS) 4% and bromophenol blue 0.2%). Electrophoresis was performed using 10% SDS-PAGE and transferred to nitrocellulose membranes (Millipore Corp., Billerica, Mass.). […] The intensity of the bands was measured by densitometry. eNOS or phosphorylated eNOS were extracted from cell culture of neonatal myocytes, PA ring and aortic ring (2-3 mm) of rats and measured by Western blotting analysis.
(§2) PK, ROCKII and CIP-17 expression and pretreatment of beating left atrium. To examine whether KMUP-3 or KMUP-3 amine salt affects the protein expression in beating atrium, PKA, ROCKII, PKG and phosphorylated CIP-17 was determined by Western blotting, respectively. […]
In general terms: In western blotting, separated proteins are transferred to a membrane and probed.

The test system of experiment [3] is ROCKII. The experiment can be described thus: ROCKII expression in electrically-stimulated left atria, Western blotting. Format: cell-based, guinea-pig. As for the experimental part: (§3) Protein extraction and Western blotting analysis. Briefly, after incubation with test agents in an organ bath, isolated beating atrium was frozen and pulverized to a fine powder at the temperature of liquid nitrogen. Atrium powders were then homogenized in protein extraction reagent (Pierce Biotechnology, Inc., Rockford, Ill.) by sonication. The samples were sonicated 10 sec three times and centrifuged at 13,000 rpm at 4° C. for 30 min. The protein concentrations of supernatants were determined by using bovine serum albumin as the standard. The cell extracts were then boiled in a ratio of 4:1 with sample buffer (Tris 100 mM, pH 6.8; glycerol 20%, Sodium dodecyl sulfate (SDS) 4% and bromophenol blue 0.2%). Electrophoresis was performed using 10% SDS-PAGE and transferred to nitrocellulose membranes (Millipore Corp., Billerica, Mass.). The membrane was blocked with Tris-buffered saline (TBS; 20 mM Tris and 137 mM NaCl, pH 7.6) containing 0.1% Tween 20 (TTBS) and 5% nonfat milk at room temperature for 1 h, washed with TTBS, and then incubated overnight at 4° C. in the appropriate primary antibody for PKARI, RhoA, ROCKII, p-CIP-17, CPI-17 and PKG1α1β. The membranes were washed in TTBS before being incubated with horseradish peroxidase-conjugated antibody against mouse, goat, or rabbit IgG for 1 hr. Membranes were then washed in TTBS and developed with the enhanced chemiluminescence for the detection of the specific antigen. The intensity of the bands was measured by densitometry. eNOS or phosphorylated eNOS were extracted from cell culture of neonatal myocytes, PA ring and aortic ring (2-3 mm) of rats and measured by Western blotting analysis.
as §2

Experiment [4] relates to PKA. The experiment can be described thus: PKA expression in electrically-stimulated left atria, Western blotting. Format: cell-based, guinea-pig. As for the experimental part: as §3, §2
Experiment [5] deals with CPI-17. Put plainly: CPI-17 phosphorylation in electrically stimulated beating left atria. Format: cell-based, guinea-pig. The protocol: as §1, §2
The subject of experiment [6] is cGMP. The experiment can be described thus: cGMP in neonatal myocytes. The format is cell-based, rat. As for the experimental part: eNOS/p-NOS and cAMP/cGMP in neonatal myocytes. To determine the role of the NO/cGMP-pathway in heart, neonatal rat myocyte protein was extracted followed by Western blotting to measure the expression of eNOS, phosphorylated eNOS (p-eNOS), cAMP, and cGMP (FIG. 14 A-14 B and FIG. 15 A-15 B). KMUP-3 increased eNOS and p-eNOS in neonatal rat cardiomyocytes and the effect was reduced by L-NAME (100 μM)-pretreatment (FIG. 14A and FIG. 14B). KMUP-3 increased both cAMP and cGMP.

Experiment [7] relates to RhoA. Put plainly: RhoA activation of neonatal myocytes, affinity precipitation assay. The format is cell-based, rat. The protocol: RhoA activation was determined using an affinity precipitation assay, which binds only the active GTP-bound form of Rho. In brief, sub-confluent neonatal rat myocytes were grown to approximately 85-90% confluence, cells were exposed to KMUP-3 or KMUP-3 amine salt with 10% FBS for 90 min at 37 before addition of lysis buffer (25 mM HEPES, pH 7.5, 150 mM NaCl, 1% Igepal CA-630, 10 mM MgCl2, 1 mM EDTA and 10% glycerol, 1 Ag/ml aprotinin, 10 Ag/ml leupeptin and 1 mmol/l […]) for 15 min at 4, cell lysates were clarified by centrifugation at 13000 g at 4 for 10 min, and equal volume of lysates were incubated with agarose conjugated rhotekin-RBD for 45 min at 4, then washed three time with lysis buffer. Agarose beads were boiled in SDS-PAGE sample buffer to release active RhoA in samples were resolved on a 12% polyacrylamide gel followed by immunoblotting with anti-Rho A (clone 55).

Experiment [8] concerns ROCKII. Put plainly: ROCKII expression in aorta and pulmonary artery rings, Western blotting. Format: cell-based, rat. The conditions noted are these: aorta and pulmonary artery (PA) ring. The protocol:
(§4) ROCKII expression and vascular resistance. To determine whether KMUP-3's ROCKII activity increased vascular resistance, aorta and pulmonary artery (PA) ring protein was extracted followed by Western blotting to measure the expression ROCKII and eNOS.
as §1

Experiment [9] deals with eNOS. The experiment can be described thus: eNOS expression in aorta and pulmonary artery rings, Western blotting. Format: cell-based, rat. The conditions noted are these: aorta and pulmonary artery (PA) ring. As for the experimental part: as §4, §1
Experiment [10] has as its system electrically-stimulated left atria. Put plainly: Electrically-stimulated beating left atrium, organ bath. The format is cell-based, guinea-pig. The conditions noted are these: 0.1~30 μM, electrical stimulation 1 Hz.

In the case of `Cn1c(=O)c2c(ncn2CCN2CCN(c3ccc([N+](=O)[O-])cc3)CC2)n(C)c1=O` [KMUP-3, 7-[2-[4-(4-nitrobenzene)piperazinyl]ethyl]-1,3-dimethylxanthine], in [1], the “Chronotropic effect (beating frequency)” value was “decreased” and the “Inotropic effect (contraction force)” value is “concentration-dependently increased”. In addition, the RhoA expression entry in experiment [2] was “significantly increased”. The ROCKII expression entry in [3] (FIG. 13A, concentration not given) is recorded as “significantly increased”. The ROCKII expression result in experiment [3] (KMUP-3 0.1-10 μM) was “significantly increased”. Moreover, the PKA expression result in experiment [4] (FIG. 13B, concentration not given) was “significantly increased”. For the same compound, the PKA expression entry in experiment [4] (KMUP-3 0.1-10 μM) was “significantly increased”. Further, the “Phosphorylation of CPI-17” value in experiment [5] is reported as “concentration-dependently increased”. In [6], the cGMP result was “increased” and the “cGMP increase compared with cAMP increase” value is “increased more than the former”. Also, the “Rho A activation (active GTP-bound form)” value in [7] is “increased”. Moreover, the “Vascular ROCKII expression” value in experiment [8] is “did not increase”. Moreover, the “Vascular eNOS expression” value in [9] is listed as “did increase”. Moreover, in [10], the Left atrium contractility entry was “concentration-dependently increased”.
